Measured values reported in PubChem BioAssay (NCI).
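In this assay, cells in 96-well plates receive the compound at five concentrations for 48 hours. Endpoints are linearly interpolated between the surrounding concentrations. At the GI50, growth is halved. At the TGI there is no net growth.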

Columns and labels:
Assay in all cases: inhibition of tumour cell growth, NCI panel, 48 h
[1] = tested on: 786-0 renal
[2] = tested on: A498 renal
[3] = tested on: A549 NSCLC
[4] = tested on: ACHN renal
[5] = tested on: BT-549 breast
[6] = tested on: CAKI-1 renal
[7] = tested on: CCRF-CEM leukemia
[8] = tested on: COLO 205 colon
[9] = tested on: DU-145 prostate
[10] = tested on: EKVX NSCLC
[11] = tested on: HCC-2998 colon
[12] = tested on: HCT-116 colon
[13] = tested on: HCT-15 colon
[14] = tested on: HL-60(TB) leukemia
[15] = tested on: HOP-62 NSCLC
[16] = tested on: HOP-92 NSCLC
[17] = tested on: HS 578T breast
[18] = tested on: HT29 colon
[19] = tested on: IGROV1 ovarian
[20] = tested on: K-562 leukemia
[21] = tested on: KM12 colon
[22] = tested on: LOX IMVI melanoma
[23] = tested on: M14 melanoma
[24] = tested on: MALME-3M melanoma
[25] = tested on: MCF7 breast
[26] = tested on: MDA-MB-231 breast
[27] = tested on: MDA-MB-435
[28] = tested on: MOLT-4 leukemia
[29] = tested on: NCI-H226 lung
[30] = tested on: NCI-H460 lung
[31] = tested on: NCI-H522 lung
[32] = tested on: NCI/ADR-RES ovarian
[33] = tested on: OVCAR-3 ovarian
[34] = tested on: OVCAR-4 ovarian
[35] = tested on: OVCAR-5 ovarian
[36] = tested on: OVCAR-8 ovarian
[37] = tested on: PC-3 prostate
[38] = tested on: RPMI-8226 leukemia
[39] = tested on: RXF 393 renal
[40] = tested on: SF-268 CNS
[41] = tested on: SF-295 CNS
[42] = tested on: SF-539 CNS
[43] = tested on: SK-MEL-2 melanoma
[44] = tested on: SK-MEL-28 melanoma
[45] = tested on: SK-MEL-5 melanoma
[46] = tested on: SK-OV-3 ovarian
[47] = tested on: SN12C renal
[48] = tested on: SNB-19 CNS
[49] = tested on: SNB-75 CNS
[50] = tested on: SR leukemia
[51] = tested on: SW-620 colon
[52] = tested on: T-47D breast
[53] = tested on: TK-10 renal
[54] = tested on: U251 CNS
[55] = tested on: UACC-257 melanoma
[56] = tested on: UACC-62 melanoma
[57] = tested on: UO-31 renal

NS(=O)(=O)c1cccc(Nc2nc(SCC(=O)c3ccc([N+](=O)[O-])cc3)nc3ccccc23)c1
GI50 [1]: 48.5 µM
TGI [1]: > 100 µM
GI50 [2]: 38.4 µM
TGI [2]: > 100 µM
GI50 [3]: 32 µM
TGI [3]: > 100 µM
GI50 [4]: 30.6 µM
TGI [4]: > 100 µM
GI50 [5]: 11.3 µM
TGI [5]: 51.5 µM
GI50 [6]: 32.1 µM
TGI [6]: > 100 µM
GI50 [7]: 20.3 µM
TGI [7]: > 100 µM
GI50 [8]: 40.3 µM
TGI [8]: > 100 µM
GI50 [9]: 28.7 µM
TGI [9]: > 100 µM
GI50 [10]: 32.9 µM
TGI [10]: > 100 µM
GI50 [11]: 31.7 µM
TGI [11]: > 100 µM
GI50 [12]: 31.3 µM
TGI [12]: > 100 µM
GI50 [13]: 38.7 µM
TGI [13]: > 100 µM
GI50 [14]: 22.2 µM
TGI [14]: 64.3 µM
GI50 [15]: 28.8 µM
TGI [15]: > 100 µM
GI50 [16]: 14 µM
TGI [16]: > 100 µM
GI50 [17]: 35.2 µM
TGI [17]: > 100 µM
GI50 [18]: 38.8 µM
TGI [18]: > 100 µM
GI50 [19]: 24 µM
TGI [19]: > 100 µM
GI50 [20]: 23.6 µM
TGI [20]: > 100 µM
GI50 [21]: 37.6 µM
TGI [21]: > 100 µM
GI50 [22]: 31.4 µM
TGI [22]: > 100 µM
GI50 [23]: 31.6 µM
TGI [23]: > 100 µM
GI50 [24]: 44.5 µM
TGI [24]: > 100 µM
GI50 [25]: 12.4 µM
TGI [25]: > 100 µM
GI50 [26]: > 100 µM
TGI [26]: > 100 µM
GI50 [27]: 44.9 µM
TGI [27]: > 100 µM
GI50 [28]: 12.9 µM
TGI [28]: 45.1 µM
GI50 [29]: 21.2 µM
TGI [29]: 70.8 µM
GI50 [30]: 26.2 µM
TGI [30]: > 100 µM
GI50 [31]: 20.1 µM
TGI [31]: 89.6 µM
GI50 [32]: > 100 µM
TGI [32]: > 100 µM
GI50 [33]: 19.6 µM
TGI [33]: 72.9 µM
GI50 [34]: 26.6 µM
TGI [34]: > 100 µM
GI50 [35]: > 100 µM
TGI [35]: > 100 µM
GI50 [36]: 25.3 µM
TGI [36]: > 100 µM
GI50 [37]: 20.2 µM
TGI [37]: > 100 µM
GI50 [38]: 16.1 µM
TGI [38]: 83 µM
GI50 [39]: 23.2 µM
TGI [39]: > 100 µM
GI50 [40]: 43.7 µM
TGI [40]: > 100 µM
GI50 [41]: 38.3 µM
TGI [41]: > 100 µM
GI50 [42]: 31.3 µM
TGI [42]: > 100 µM
GI50 [43]: 14.4 µM
TGI [43]: 44 µM
GI50 [44]: 34.9 µM
TGI [44]: > 100 µM
GI50 [45]: 22.3 µM
TGI [45]: 88.1 µM
GI50 [46]: 63.2 µM
TGI [46]: > 100 µM
GI50 [47]: 40.9 µM
TGI [47]: > 100 µM
GI50 [48]: > 100 µM
TGI [48]: > 100 µM
GI50 [49]: > 100 µM
TGI [49]: > 100 µM
GI50 [50]: 21.1 µM
TGI [50]: > 100 µM
GI50 [51]: 64.2 µM
TGI [51]: > 100 µM
GI50 [52]: 9.95 µM
TGI [52]: 65.4 µM
GI50 [53]: 54.5 µM
TGI [53]: > 100 µM
GI50 [54]: 58.2 µM
TGI [54]: > 100 µM
GI50 [55]: 30.1 µM
TGI [55]: > 100 µM
GI50 [56]: 16.3 µM
TGI [56]: 37.3 µM
GI50 [57]: 32.6 µM
TGI [57]: > 100 µM
